Test results from ChEMBL document CHEMBL3098101, “Fragment based discovery of arginine isosteres through REPLACE: towards non-ATP competitive CDK inhibitors” (Bioorg Med Chem, 2014).
Where a SMILES comes first, the peptide text is derived from it. [ ]: non-standard residue; d: D form. The star is where a group is joined. Furoyl(5-pyrazol-1-ylmethyl) = O=C(c1ccc(Cn2cccn2)o1)*; Phe(4-F) = N[C@@H](Cc1ccc(F)cc1)C(=O)O; Picolinoyl(6-Me) = Cc1cccc(C(=O)*)n1; X13 = CN1CCN(Cc2ccc(C(=O)*)o2)CC1; X1 = Cc1cnn(Cc2ccc(C(=O)*)o2)c1; X11 = CCN(CC)Cc1ccc(C(=O)*)o1; X12 = O=C(c1csc(-c2cccs2)n1)*; X14 = O=C(c1csc(-c2ccsc2)n1)*; X15 = CCOc1ccc(CC(=O)*)cc1OCC; X7 = CC(C)COc1ccc(CC(=O)*)cc1; X4 = O=C(c1ccc(Cn2ccnc2)o1)*; Picolinoyl = O=C(c1ccccn1)*; X16 = CCOc1ccc(CC(=O)*)cc1; X9 = CCCOc1ccc(CC(=O)*)cc1; X10 = CCOc1cccc(C(=O)*)n1; X8 = COc1cccc(C(=O)*)n1

Key:
[1] = target: Cyclin-dependent kinase 4/cyclin D1 (Homo sapiens, UniProt P24385); assay: Inhibition of human recombinant CDK4/cyclin D1 using fluoresceinyl-Ahx-Pro-Val-Lys-Arg-Arg-Leu-(3ClPhe)-Gly as substrate after 45 mins by fluorescence polarization assay; format: protein-complex assay
[2] = target: CDK2/Cyclin A2 (Homo sapiens, UniProt P24941); assay: Inhibition of human recombinant CDK2/cyclin A using fluoresceinyl-Ahx-Pro-Val-Lys-Arg-Arg-Leu-Phe-Gly as substrate after 45 mins by fluorescence polarization assay; format: protein-complex assay

Sequence of Cyclin-dependent kinase 4/cyclin D1 (P11802 whole entry): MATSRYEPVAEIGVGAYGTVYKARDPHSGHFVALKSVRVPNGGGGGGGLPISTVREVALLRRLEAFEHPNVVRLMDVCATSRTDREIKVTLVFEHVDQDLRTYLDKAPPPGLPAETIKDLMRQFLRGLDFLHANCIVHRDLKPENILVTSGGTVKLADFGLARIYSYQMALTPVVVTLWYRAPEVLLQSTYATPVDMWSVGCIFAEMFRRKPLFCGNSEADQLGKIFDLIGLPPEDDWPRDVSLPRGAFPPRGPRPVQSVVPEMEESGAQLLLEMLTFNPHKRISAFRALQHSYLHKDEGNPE
Sequence of Cyclin-dependent kinase 4/cyclin D1 (P24385 whole entry): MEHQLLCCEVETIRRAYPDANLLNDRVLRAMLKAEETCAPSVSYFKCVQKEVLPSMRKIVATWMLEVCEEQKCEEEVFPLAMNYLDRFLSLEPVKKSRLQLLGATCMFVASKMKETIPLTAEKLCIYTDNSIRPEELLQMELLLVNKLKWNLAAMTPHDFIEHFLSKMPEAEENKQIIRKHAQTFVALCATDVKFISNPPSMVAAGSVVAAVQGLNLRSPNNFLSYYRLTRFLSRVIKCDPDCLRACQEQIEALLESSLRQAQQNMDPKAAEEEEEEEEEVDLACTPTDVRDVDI

Structure (SMILES) | IC50 [1] | IC50 [2]
CCCOc1ccc(CC(=O)N[C@@H](CCCN=C(N)N)C(=O)N[C@@H](CC(C)C)C(=O)N[C@@H](CC(N)=O)C(=O)N[C@@H](Cc2ccc(F)cc2)C(=O)O)cc1 (X9-RLN[Phe(4-F)]-OH) | > 50 µM | > 100 µM
CC[C@H](C)[C@H](NC(=O)[C@H](CC(C)C)NC(=O)[C@H](CCCNC(=N)N)NC(=O)c1csc(-c2cccs2)n1)C(=O)N[C@@H](Cc1ccccc1)C(=O)O (X12-RLIF-OH) | > 180 µM | > 180 µM
CCOc1ccc(CC(=O)N[C@@H](CCCNC(=N)N)C(=O)N[C@@H](CC(C)C)C(=O)N[C@@H](CC(N)=O)C(=O)N[C@@H](Cc2ccc(F)cc2)C(=O)O)cc1OCC (X15-RLN[Phe(4-F)]-OH) | 3 µM | 5.2 µM
COc1cccc(C(=O)N[C@@H](CCCN=C(N)N)C(=O)N[C@@H](CC(C)C)C(=O)N[C@@H](CC(N)=O)C(=O)N[C@@H](Cc2ccc(F)cc2)C(=O)O)n1 (X8-RLN[Phe(4-F)]-OH) | 36.9 µM | 36.4 µM
CC(C)COc1ccc(CC(=O)N[C@@H](CCCNC(=N)N)C(=O)N[C@@H](CC(C)C)C(=O)N[C@@H](CC(N)=O)C(=O)N[C@@H](Cc2ccc(F)cc2)C(=O)O)cc1 (X7-RLN[Phe(4-F)]-OH) | > 100 µM | > 100 µM
CCOc1ccc(CC(=O)N[C@@H](CCCN=C(N)N)C(=O)N[C@@H](CC(C)C)C(=O)N[C@@H](CC(N)=O)C(=O)N[C@@H](Cc2ccc(F)cc2)C(=O)O)cc1 (X16-RLN[Phe(4-F)]-OH) | > 100 µM | > 100 µM
CC[C@H](C)[C@H](NC(=O)[C@H](CC(C)C)NC(=O)[C@H](CCCN=C(N)N)NC(=O)c1ccc(Cn2cccn2)o1)C(=O)N[C@@H](Cc1ccccc1)C(=O)O ({Furoyl(5-pyrazol-1-ylmethyl)}-RLIF-OH) | > 100 µM | > 100 µM
CC[C@H](C)[C@H](NC(=O)[C@H](CC(C)C)NC(=O)[C@H](CCCNC(=N)N)NC(=O)c1ccc(CN2CCN(C)CC2)o1)C(=O)N[C@@H](Cc1ccccc1)C(=O)O (X13-RLIF-OH) | 43.2 µM | 50.3 µM
CC[C@H](C)[C@H](NC(=O)[C@H](CC(C)C)NC(=O)[C@H](CCCNC(=N)N)NC(=O)c1cccc(C)n1)C(=O)N[C@@H](Cc1ccccc1)C(=O)O ({Picolinoyl(6-Me)}-RLIF-OH) | 85.7 µM | > 100 µM
CC[C@H](C)[C@H](NC(=O)[C@H](CC(C)C)NC(=O)[C@H](CCCN=C(N)N)NC(=O)c1csc(-c2ccsc2)n1)C(=O)N[C@@H](Cc1ccccc1)C(=O)O (X14-RLIF-OH) | > 180 µM | 56.2 µM
CC[C@H](C)[C@H](NC(=O)[C@H](CC(C)C)NC(=O)[C@H](CCCNC(=N)N)NC(=O)c1ccc(CN(CC)CC)o1)C(=O)N[C@@H](Cc1ccccc1)C(=O)O (X11-RLIF-OH) | 41.9 µM | 43.5 µM
CC[C@H](C)[C@H](NC(=O)[C@H](CC(C)C)NC(=O)[C@H](CCCN=C(N)N)NC(=O)c1ccc(Cn2cc(C)cn2)o1)C(=O)N[C@@H](Cc1ccccc1)C(=O)O (X1-RLIF-OH) | > 180 µM | > 100 µM
CC(C)C[C@H](NC(=O)[C@H](CCCN=C(N)N)NC(=O)c1ccccn1)C(=O)N[C@@H](CC(N)=O)C(=O)N[C@@H](Cc1ccc(F)cc1)C(=O)O (Picolinoyl-RLN[Phe(4-F)]-OH) | 48.4 µM | 29.2 µM
CCOc1cccc(C(=O)N[C@@H](CCCNC(=N)N)C(=O)N[C@@H](CC(C)C)C(=O)N[C@@H](CC(N)=O)C(=O)N[C@@H](Cc2ccc(F)cc2)C(=O)O)n1 (X10-RLN[Phe(4-F)]-OH) | > 100 µM | 39.7 µM
CC[C@H](C)[C@H](NC(=O)[C@H](CC(C)C)NC(=O)[C@H](CCCN=C(N)N)NC(=O)c1ccc(Cn2ccnc2)o1)C(=O)N[C@@H](Cc1ccccc1)C(=O)O (X4-RLIF-OH) | 159 µM | > 100 µM
